Measurements: PubChem BioAssay (NCI)
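A five-concentration, 48-hour dose response in 96-well plates underlies each endpoint, interpolated linearly between surrounding concentrations. The concentration for 50% growth inhibition is given as GI50. At the TGI there is no net growth.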

Columns and labels:
Assay in all cases: DTP human tumour cell line panel, 48 h
HT29 colon = test system: HT29 colon
IGROV1 ovarian = test system: IGROV1 ovarian
MALME-3M melanoma = test system: MALME-3M melanoma
MDA-N = test system: MDA-N
NCI-H226 lung = test system: NCI-H226 lung
NCI-H522 lung = test system: NCI-H522 lung
NCI/ADR-RES ovarian = test system: NCI/ADR-RES ovarian
OVCAR-3 ovarian = test system: OVCAR-3 ovarian
OVCAR-8 ovarian = test system: OVCAR-8 ovarian
SF-295 CNS = test system: SF-295 CNS
SK-MEL-2 melanoma = test system: SK-MEL-2 melanoma
SR leukemia = test system: SR leukemia
U251 CNS = test system: U251 CNS

Structure (SMILES) | TGI (HT29 colon) [µM] | TGI (IGROV1 ovarian) [µM] | TGI (MALME-3M melanoma) [µM] | TGI (MDA-N) [µM] | TGI (NCI-H226 lung) [µM] | TGI (NCI-H522 lung) [µM] | TGI (NCI/ADR-RES ovarian) [µM] | TGI (OVCAR-3 ovarian) [µM] | TGI (OVCAR-8 ovarian) [µM] | TGI (SF-295 CNS) [µM] | TGI (SK-MEL-2 melanoma) [µM] | TGI (SR leukemia) [µM] | TGI (U251 CNS) [µM] | GI50 (HT29 colon) [µM] | GI50 (IGROV1 ovarian) [µM] | GI50 (NCI-H226 lung) [µM] | GI50 (NCI-H522 lung) [µM] | GI50 (OVCAR-8 ovarian) [µM] | GI50 (SR leukemia) [µM] | GI50 (U251 CNS) [µM]
Cc1ccc(C(=O)Nc2ccc(CP(=O)(O)O)cc2)cc1NC(=O)c1cccc(N)c1 | > 100 | > 100 | > 100 | > 100 | > 100 | > 100 | > 100 | > 100 | > 100 | > 100 | > 100 | > 100 | > 100 |  |  |  |  |  |  | 
CN(C)c1ccc(/C=C/c2ccc(S(N)(=O)=O)cc2)cc1 | > 100 | 33.4 | 37.6 | > 100 | 33 | 25.6 | 40 | 49.8 | 27.5 | 46.8 | > 100 | > 100 | 31.7 | 30.8 | 13.4 | 12.1 | 6.88 | 4.95 | 8.58 | 11.2
CC(Oc1ccccc1Cl)C(=O)NN1C(=O)CC(=O)N(c2ccccc2)C1=S (centres undefined) | > 100 | > 100 | > 100 | > 100 | > 100 | > 100 | > 100 | > 100 | > 100 | > 100 | > 100 | > 100 | > 100 |  |  |  |  |  |  | 
CSC1NC(c2ccccc2)=C(C#N)C(=O)N1C1OCC(OC(C)=O)C(OC(C)=O)C1OC(C)=O (centres undefined) | > 100 | > 100 | > 100 | > 100 | > 100 | > 100 | > 100 | > 100 | > 100 | > 100 |  | > 100 | > 100 |  |  |  |  |  |  | 
COC(=O)C1CCC(=S)N1C(=O)OCc1ccccc1 (centres undefined) | > 100 | > 100 | > 100 | > 100 |  | > 100 | > 100 | > 100 | > 100 | > 100 | > 100 | > 100 | > 100 |  |  |  |  |  |  | 
COc1ccc([N+](=O)[O-])c2c(NCCCN(C)C)ccnc12 | > 32.4 | 4.85 | 5.62 | 27 | 30.2 | 3.34 | 42.2 | 6.78 | > 48.5 | 24.8 | 4.48 | 1.97 | 23.6 |  |  |  |  |  |  | 
CCOC(=O)c1cc(-n2nnc3ccccc32)cn1C | > 10 | > 10 | > 10 | > 10 | > 10 | > 10 | > 10 | > 10 | > 10 | > 10 | > 10 | > 10 | > 10 |  |  |  |  |  |  | 
CN(CC(=O)O)c1ncc2c(n1)C=CCC2 | > 100 | > 100 | > 100 | > 100 | > 100 | > 100 | > 100 | > 100 | > 100 | > 100 | > 100 | > 100 | > 100 |  |  |  |  |  |  | 
